Results on three molecules are retold here after publication PMC10866925, “Catalyst-free late-stage functionalization to assemble α-acyloxyenamide electrophiles for selectively profiling conserved lysine residues” (Communications Chemistry, 2024).

For experiment [1], the target named is T1, ATP-dependent 6-phosphofructokinase, platelet type (PFKAP) (Homo sapiens, UniProt Q01813).
T1 construct: gene PFKP; full-length
T1 sequence (Q01813 1-784): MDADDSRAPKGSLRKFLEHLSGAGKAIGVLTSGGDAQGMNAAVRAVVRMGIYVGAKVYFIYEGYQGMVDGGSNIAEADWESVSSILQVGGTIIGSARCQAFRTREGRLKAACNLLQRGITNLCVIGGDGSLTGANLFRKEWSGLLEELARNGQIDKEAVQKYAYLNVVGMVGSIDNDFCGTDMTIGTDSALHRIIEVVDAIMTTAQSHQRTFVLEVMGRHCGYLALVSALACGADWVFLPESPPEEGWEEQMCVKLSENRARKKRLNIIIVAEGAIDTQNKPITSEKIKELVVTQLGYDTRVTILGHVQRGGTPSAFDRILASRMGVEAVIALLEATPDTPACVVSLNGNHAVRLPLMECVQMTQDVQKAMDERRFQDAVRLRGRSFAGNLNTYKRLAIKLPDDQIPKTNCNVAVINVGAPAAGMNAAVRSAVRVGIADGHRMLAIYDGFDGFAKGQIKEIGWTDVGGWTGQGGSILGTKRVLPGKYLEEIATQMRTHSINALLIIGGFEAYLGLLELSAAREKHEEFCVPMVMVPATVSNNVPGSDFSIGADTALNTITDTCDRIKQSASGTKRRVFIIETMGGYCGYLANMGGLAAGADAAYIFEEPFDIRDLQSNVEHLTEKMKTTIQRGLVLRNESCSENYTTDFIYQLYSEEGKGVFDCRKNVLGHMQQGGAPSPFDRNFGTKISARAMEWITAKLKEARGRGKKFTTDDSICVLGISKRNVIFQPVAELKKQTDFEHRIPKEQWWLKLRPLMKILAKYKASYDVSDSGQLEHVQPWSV
Kind of experiment: pull-down/LC-MS and pull-down/WB in cells, K688R mutant and siRNA knockdown. Format: cell-based.

In a further experiment the target is EGFR L858R mutant (Homo sapiens, UniProt P00533, L858R). Kind of experiment: Z'-LYTE FRET kinase assay, time dependent ([…] at […] min, […] at […] h); also labelling of recombinant protein, LC-MS/MS site mapping, CETSA, competitive pull-down. Format: biochemical.
EGFR L858R mutant, sequence (P00533 669-1210 L858R limits assumed): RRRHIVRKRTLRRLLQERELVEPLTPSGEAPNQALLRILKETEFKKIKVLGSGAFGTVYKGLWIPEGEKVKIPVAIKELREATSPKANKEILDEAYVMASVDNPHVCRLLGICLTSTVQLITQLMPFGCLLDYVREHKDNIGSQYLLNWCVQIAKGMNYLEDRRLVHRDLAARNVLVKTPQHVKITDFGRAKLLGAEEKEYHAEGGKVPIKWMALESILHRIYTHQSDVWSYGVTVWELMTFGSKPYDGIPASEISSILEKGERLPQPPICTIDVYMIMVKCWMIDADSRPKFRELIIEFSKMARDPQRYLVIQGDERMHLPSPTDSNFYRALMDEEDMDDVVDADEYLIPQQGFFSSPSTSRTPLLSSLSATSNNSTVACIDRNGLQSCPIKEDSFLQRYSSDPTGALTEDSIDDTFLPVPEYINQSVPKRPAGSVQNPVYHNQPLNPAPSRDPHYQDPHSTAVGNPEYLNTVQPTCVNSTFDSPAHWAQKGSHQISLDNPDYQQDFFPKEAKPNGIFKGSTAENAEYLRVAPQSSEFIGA
The target of the next experiment is T2, CDK2 (Homo sapiens, UniProt P24941).
T2 construct: CDK2/cyclinA (h); with cyclin A
Kind of experiment: radiometric kinase assay ([…]-ATP, histone H1); also K33R pull-down/WB. Format: biochemical.

A further experiment has as its target T3, CDK1 (Homo sapiens, UniProt P06493).
T3 construct: CDK1/cyclinB (h); with cyclin B
Kind of experiment: radiometric kinase assay ([…]-ATP, histone H1); also MS of K33 modification, K33R pull-down/WB, CETSA. Format: biochemical.

The next experiment addresses T4, CDK5 (Homo sapiens, UniProt Q00535).
T4 construct: CDK5/p25 (h); with p25
Kind of experiment: radiometric kinase assay ([…]-ATP, histone H1); also K33R pull-down/WB. The experiment is classed as biochemical.

T3 sequence (P06493 whole entry): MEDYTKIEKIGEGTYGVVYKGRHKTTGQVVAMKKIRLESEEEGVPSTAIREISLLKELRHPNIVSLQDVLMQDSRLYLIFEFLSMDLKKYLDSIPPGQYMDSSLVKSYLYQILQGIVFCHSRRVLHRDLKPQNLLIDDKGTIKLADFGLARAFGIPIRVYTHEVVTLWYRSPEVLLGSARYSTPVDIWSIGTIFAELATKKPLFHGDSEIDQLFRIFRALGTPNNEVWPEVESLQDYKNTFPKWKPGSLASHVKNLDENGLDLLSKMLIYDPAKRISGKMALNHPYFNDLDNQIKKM
T3 sequence (P14635 whole entry partner): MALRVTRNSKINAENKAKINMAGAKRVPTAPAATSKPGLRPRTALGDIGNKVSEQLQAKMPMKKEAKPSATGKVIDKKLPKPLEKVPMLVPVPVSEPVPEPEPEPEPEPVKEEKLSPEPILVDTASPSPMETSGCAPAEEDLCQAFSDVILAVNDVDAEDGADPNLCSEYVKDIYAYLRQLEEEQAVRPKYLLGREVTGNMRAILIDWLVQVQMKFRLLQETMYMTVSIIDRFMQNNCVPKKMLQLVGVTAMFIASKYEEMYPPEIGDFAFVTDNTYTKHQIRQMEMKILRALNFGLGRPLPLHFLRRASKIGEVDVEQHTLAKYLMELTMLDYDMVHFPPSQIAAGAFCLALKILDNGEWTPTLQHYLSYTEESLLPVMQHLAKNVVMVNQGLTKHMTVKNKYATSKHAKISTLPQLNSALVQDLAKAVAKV
T4 sequence (Q00535 whole entry): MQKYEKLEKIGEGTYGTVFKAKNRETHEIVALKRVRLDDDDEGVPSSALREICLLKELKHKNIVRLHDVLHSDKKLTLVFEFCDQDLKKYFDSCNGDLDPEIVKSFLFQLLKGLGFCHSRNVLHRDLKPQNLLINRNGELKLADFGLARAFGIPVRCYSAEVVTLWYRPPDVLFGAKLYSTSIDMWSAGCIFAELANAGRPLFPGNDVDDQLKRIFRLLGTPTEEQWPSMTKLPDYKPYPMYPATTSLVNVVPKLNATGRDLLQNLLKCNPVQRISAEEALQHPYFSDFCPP
T4 sequence (Q15078 99-307 partner limits assumed): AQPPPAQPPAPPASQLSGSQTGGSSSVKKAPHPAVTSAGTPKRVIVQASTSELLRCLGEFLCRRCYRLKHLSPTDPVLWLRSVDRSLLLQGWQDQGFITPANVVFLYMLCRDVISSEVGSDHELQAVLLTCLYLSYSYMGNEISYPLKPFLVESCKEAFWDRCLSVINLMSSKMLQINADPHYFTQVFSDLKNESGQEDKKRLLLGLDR

As to `C#Cc1ccc(C(=O)OC(=C)N(C)S(=O)(=O)c2ccc(C)cc2)cc1` [A1], the “pull-down/LC-MS and pull-down/WB in cells, K688R mutant and siRNA knockdown” value in experiment [1] is listed as “Mutation of PFKAP K688 in the protein binding pocket to K688R severely affects the probe labeling”.

In the case of `C#Cc1cccc(Nc2ncnc3cc(OC)c(OCCCCC(=O)OC(=C)N(C)S(=O)(=O)c4ccc(C)cc4)cc23)c1` [E3], the IC50 on EGFR L858R mutant stood at 1.3 nM.

As for `C#CCNC(=O)c1cc(Nc2cc(C3CC3)[nH]n2)nc(N2CCN(C(=O)CCC(=O)OC(=C)N(C)S(=O)(=O)c3ccc(C)cc3)CC2)n1` [X1], the IC50 against CDK2, against CDK1 and against CDK5 was 2000 to 6000 nM in each case.
